We go through 14 compounds from patent publication US8124624B2, “Substituted sulfonamide compounds” (Gruenenthal GmbH, priority 2008, dated 2012).

The target of the first test is T1, human B1R (Homo sapiens, UniProt P46663).
T1 construct: expressed in transfected cells; host or cells: CHO K1 cells (hB1R cells)
T1 sequence (P46663 1-353): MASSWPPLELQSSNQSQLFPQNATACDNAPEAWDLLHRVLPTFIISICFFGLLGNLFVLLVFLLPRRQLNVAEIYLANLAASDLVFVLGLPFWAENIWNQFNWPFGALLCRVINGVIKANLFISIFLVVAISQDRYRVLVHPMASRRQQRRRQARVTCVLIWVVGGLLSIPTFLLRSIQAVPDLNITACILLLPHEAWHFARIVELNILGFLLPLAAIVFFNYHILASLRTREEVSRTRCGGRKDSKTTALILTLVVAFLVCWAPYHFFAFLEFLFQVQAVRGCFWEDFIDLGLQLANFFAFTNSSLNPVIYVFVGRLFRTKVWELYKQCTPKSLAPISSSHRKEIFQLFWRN
Description: FLIPR Ca2+ influx assay, B1R antagonism, human (hB1R CHO K1 cells). To be noted: test substance 10 μM; CHO K1 cells stably transfected with human B1R; agonist Lys-Des-Arg9-bradykinin at EC80; % inhibition compared with maximum achievable inhibition. The test is classed as cell-based. Here is the method: (§1) The agonistic or antagonistic action of substances can be quantified on the bradykinin receptor 1 (B1R) of the species human and rat using ectopically expressing cell lines (CHO K1 cells) and with the aid of a Ca^2+-sensitive dye (Fluo-4) using a fluorescent imaging plate reader (FLIPR). The indication in % activation is based on the Ca^2+ signal after addition of Lys-Des-Arg^9-bradykinin (0.5 nM) or Des-Arg^9-bradykinin (100 nM). Antagonists lead to suppression of the Ca^2+ influx after the addition of the agonist. % Inhibition compared with the maximum achievable inhibition is indicated.
(§2) The agonistic or antagonistic action of substances can be determined on the bradykinin receptor 1 (B1R) of the species human and rat using the following assay. According to this assay, the Ca^2+ influx through the channel is quantified with the aid of a Ca^2+-sensitive dye (Fluo-4 type, Molecular Probes Europe BV, Leiden, Netherlands) using a Fluorescent Imaging Plate Reader (FLIPR, Molecular Devices, Sunnyvale, USA).
(§3) Chinese hamster ovary cells (CHO K1 cells) which have been stably transfected with the human B1R gene (hB1R cells) or with the B1R gene of the rat (rB1R cells) are used. For functional studies, the cells are plated out on black 96-well plates having a clear base (BD Biosciences, Heidelberg, Germany or Greiner, Frickenhausen, Germany) in a density of 20,000-35,000 cells/well. The cells are incubated overnight at 37° C. and with 5% CO2 in culture medium (hB1R cells: Nutrient Mixture Ham's F12, Gibco Invitrogen GmbH, Karlsruhe, Germany or DMEM, Sigma-Aldrich, Taufkirchen, Germany; rB1R cells: D-MEM/F12, Gibco Invitrogen GmbH, Karlsruhe, Germany), with 10 vol. % FBS (fetal bovine serum, Gibco Invitrogen GmbH, Karlsruhe, Germany or PAN Biotech GmbH, Aidenbach, Germany).
(§4) On the following day, the cells are loaded for 60 minutes at 37° C. with 2.13 μM Fluo-4 (Molecular Probes Europe BV, Leiden, Netherlands) in HBSS buffer (Hank's buffered saline solution, Gibco Invitrogen GmbH, Karlsruhe, Germany) […] (Sigma-Aldrich, Taufkirchen, Germany) and 10 mM HEPES (Sigma-Aldrich, Taufkirchen, Germany). The plates are then washed twice with HBSS buffer, and HBSS buffer additionally containing 0.1% BSA (bovine serum albumin; Sigma-Aldrich, Taufkirchen, Germany), 5.6 mM glucose and 0.05% gelatin (Merck KGaA, Darmstadt, Germany) is added to the plates. After incubation for a further 20 minutes at room temperature, the plates are inserted into the FLIPR for Ca^2+ measurement.
(§5) Alternatively, washing is carried out with buffer A (15 mM HEPES, 80 mM NaCl, 5 mM KCl, 1.2 mM CaCl2, 0.7 mM MgSO4, 2 g/l glucose, 2.5 mM probenecid) followed by loading with buffer A with added 2.5 μM Fluo-4 and 0.025% Pluronic F127 (Sigma-Aldrich, Taufkirchen, Germany). The cells are then washed twice with buffer A and incubated for 30 minutes at room temperature with buffer A additionally containing 0.05% BSA and 0.05% gelatin and are then inserted into the FLIPR for Ca^2+ measurement.
(§6) The Ca^2+-dependent fluorescence is measured before and after the addition of substances (λex=488 nm, λem=540 nm). Quantification is carried out by measuring the highest fluorescence intensity (FC, fluorescence counts) over time.
(§7) The FLIPR protocol consists of two substance additions. Test substances (10 μM) are first pipetted onto the cells and the Ca^2+ influx is compared with the control (hB1R: Lys-Des-Arg^9-bradykinin >=50 nM; rB1R: Des-Arg^9-bradykinin 10 μM). This gives the activation in %, based on the Ca^2+ signal after addition of Lys-Des-Arg^9-bradykinin (>=50 nM) or Des-Arg^9-bradykinin (10 μM). After 10-20 minutes' incubation, Lys-Des-Arg^9-bradykinin (hB1R) or Des-Arg^9-bradykinin (rB1R) is applied in the concentration of the EC80, and the influx of Ca^2+ is likewise determined. Antagonists lead to suppression of the Ca^2+ influx. The % inhibition compared with the maximum achievable inhibition is calculated. […]
Regarding `COc1cc(C)c(S(=O)(=O)N2c3ccccc3CCC2COCC(=O)N2CCC(CCCN3CCCC3)(c3cccnc3)CC2)c(C)c1` (stereo not drawn) [Example 54, 2-[[1-[(4-Methoxy-2,6-dimethyl-phenyl)sulfonyl]-1,2,3,4-tetrahydro-quinolin-2-yl]-methoxy]-1-[4-pyridin-3-yl-4-(3-pyrrolidin-1-yl-propyl)-piperidin-1-yl]-ethanone], the “B1R antagonism, human [10 μM] % inhibition” value amounted to 100%.

Staying with this test, now noted: test substance 10 μM; CHO K1 cells stably transfected with human B1R; agonist Lys-Des-Arg9-bradykinin at EC80; % inhibition compared with maximum achievable inhibition; read-out: B1R antagonism, human [10 μM] % inhibition.
In the case of `O=C(CC(NS(=O)(=O)c1ccc2ccccc2c1)c1ccccc1)N1CCC(CCN2CCCC2)(c2cccnc2)CC1` (stereo not drawn) [Example 1, N-(3-Oxo-1-phenyl-3-(4-(pyridin-3-yl)-4-(2-(pyrrolidin-1-yl)ethyl)piperidin-1-yl)propyl)naphthalene-2-sulfonamide], the inhibition (usually the change of the read-out against control, counted positive when it falls) at 10 µM was 104%.

For the next test, the target named is T2, B1R of the rat (Rattus norvegicus, UniProt P97583).
T2 construct: expressed in transfected cells; host or cells: CHO K1 cells (rB1R cells)
T2 sequence (P97583 1-337): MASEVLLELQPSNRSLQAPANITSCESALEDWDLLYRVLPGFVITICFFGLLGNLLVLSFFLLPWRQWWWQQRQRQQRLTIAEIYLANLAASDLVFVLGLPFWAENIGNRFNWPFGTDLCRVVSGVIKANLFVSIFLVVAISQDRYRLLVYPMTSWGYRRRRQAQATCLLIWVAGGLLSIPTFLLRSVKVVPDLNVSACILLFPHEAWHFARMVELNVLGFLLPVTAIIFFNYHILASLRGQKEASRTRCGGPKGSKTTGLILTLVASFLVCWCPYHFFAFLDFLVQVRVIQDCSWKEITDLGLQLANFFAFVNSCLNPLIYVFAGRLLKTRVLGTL
Description: FLIPR Ca2+ influx assay, B1R antagonism, rat (rB1R CHO K1 cells). The test is classed as cell-based. The settings on record: test substance 10 μM; CHO K1 cells stably transfected with rat B1R; agonist Des-Arg9-bradykinin at EC80; % inhibition compared with maximum achievable inhibition. Here is the method:
as §1, §2, §3, §4, §5, §6, §7
Regarding `O=C(CCCC1CCCCN1S(=O)(=O)c1ccccc1C(F)(F)F)N1CCC(CCCN2CCCC2)(c2ccncc2)CC1` (stereo not drawn) [Example 59, 1-[4-Pyridin-4-yl-4-(3-pyrrolidin-1-yl-propyl)-piperidin-1-yl]-4-[1-[[2-(trifluoromethyl)-phenyl]sulfonyl]-piperidin-2-yl]-butan-1-one], the “B1R antagonism, rat [10 μM] % inhibition” value came to 101%. Still for that read-out and setting: under `COc1cc(C)c(S(=O)(=O)N2CCCCC2CCCC(=O)N2CCC(CCCN3CCCC3)(c3ccncc3)CC2)c(C)c1` (stereo not drawn) [Example 63, 4-[1-[(4-Methoxy-2,6-dimethyl-phenyl)sulfonyl]-piperidin-2-yl]-1-[4-pyridin-4-yl-4-(3-pyrrolidin-1-yl-propyl)-piperidin-1-yl]-butan-1-one] stands 102%; under `CS(=O)(=O)N(CCOCC(=O)N1CCC(CCCN2CCCC2)(c2ccncc2)CC1)C(c1ccccc1)c1ccccc1` [Example 65, N-Benzhydryl-N-[2-[2-oxo-2-[4-pyridin-4-yl-4-(3-pyrrolidin-1-yl-propyl)-piperidin-1-yl]-ethoxy]-ethyl]-methanesulfonic acid amide], 63%.

As for `CS(=O)(=O)N(CCOCC(=O)N1CCC(CCCN2CCCC2)(c2ccncc2)CC1)C(c1ccccc1)c1ccccc1` [Example 66, N-Benzhydryl-N-[2-[2-oxo-2-[4-pyridin-4-yl-4-(3-pyrrolidin-1-yl-propyl)-piperidin-1-yl]-ethoxy]-ethyl]-methanesulfonic acid amide], the “B1R antagonism, rat [10 μM] % inhibition” value is listed as 99%. The same measure, in the same setting: under `COc1cc(C)c(S(=O)(=O)N2c3ccccc3OCC2COCC(=O)N2CCC(CCCN3CCCC3)(c3ccncc3)CC2)c(C)c1` (stereo not drawn) [Example 70, 2-[[4-[(4-Methoxy-2,6-dimethyl-phenyl)sulfonyl]-3,4-dihydro-2H-[1,4]benzoxazin-3-yl]-methoxy]-1-[4-pyridin-4-yl-4-(3-pyrrolidin-1-yl-propyl)-piperidin-1-yl]-ethanone] stands 100%.

Staying with this test, now noted: test substance 10 μM; CHO K1 cells stably transfected with rat B1R; agonist Des-Arg9-bradykinin at EC80; % inhibition compared with maximum achievable inhibition; read-out: B1R antagonism, rat [10 μM] % inhibition.
Consider `O=C(CC(NS(=O)(=O)c1ccc2ccccc2c1)c1ccccc1)N1CCC(CCN2CCCC2)(c2cccnc2)CC1` (stereo not drawn) [Example 1, N-(3-Oxo-1-phenyl-3-(4-(pyridin-3-yl)-4-(2-(pyrrolidin-1-yl)ethyl)piperidin-1-yl)propyl)naphthalene-2-sulfonamide], for which the inhibition at 10 µM worked out at 63%. On to `O=C(CCCC1CCCCN1S(=O)(=O)c1ccccc1C(F)(F)F)N1CCC(CCCN2CCCC2)(c2ccncc2)CC1` (stereo not drawn) [Example 58, 1-[4-Pyridin-4-yl-4-(3-pyrrolidin-1-yl-propyl)-piperidin-1-yl]-4-[1-[[2-(trifluoromethyl)-phenyl]sulfonyl]-piperidin-2-yl]-butan-1-one], for which the inhibition at 10 µM is 99%.

In the case of `COc1cc(C)c(S(=O)(=O)N2CCCCC2CCCC(=O)N2CCC(CCCN3CCCC3)(c3ccncc3)CC2)c(C)c1` (stereo not drawn) [Example 62, 4-[1-[(4-Methoxy-2,6-dimethyl-phenyl)sulfonyl]-piperidin-2-yl]-1-[4-pyridin-4-yl-4-(3-pyrrolidin-1-yl-propyl)-piperidin-1-yl]-butan-1-one], the inhibition at 10 µM was 100%. In the case of `O=C(CCCC1CCCCN1S(=O)(=O)c1cccc2ccccc12)N1CCC(CCCN2CCCC2)(c2ccncc2)CC1` (stereo not drawn) [Example 64, 4-[1-(Naphthalen-1-ylsulfonyl)-piperidin-2-yl]-1-[4-pyridin-4-yl-4-(3-pyrrolidin-1-yl-propyl)-piperidin-1-yl]-butan-1-one], the inhibition at 10 µM was 46%. Regarding `COc1cc(C)c(S(=O)(=O)N2c3ccccc3OCC2COCC(=O)N2CCC(CCCN3CCCC3)(c3ccncc3)CC2)c(C)c1` (stereo not drawn) [Example 69, 2-[[4-[(4-Methoxy-2,6-dimethyl-phenyl)sulfonyl]-3,4-dihydro-2H-[1,4]benzoxazin-3-yl]-methoxy]-1-[4-pyridin-4-yl-4-(3-pyrrolidin-1-yl-propyl)-piperidin-1-yl]-ethanone], the inhibition at 10 µM turned out to be 99%.

Regarding `O=C(COCC1COc2ccccc2N1S(=O)(=O)c1ccccc1C(F)(F)F)N1CCC(CCCN2CCCC2)(c2cccnc2)CC1` (stereo not drawn) [Example 73, 1-[4-Pyridin-3-yl-4-(3-pyrrolidin-1-yl-propyl)-piperidin-1-yl]-2-[[4-[[2-(trifluoromethyl)-phenyl]sulfonyl]-3,4-dihydro-2H-[1,4]benzoxazin-3-yl]-methoxy]-ethanone], the inhibition at 10 µM was 84%. Consider `O=C(COCC1COc2ccccc2N1S(=O)(=O)c1ccccc1C(F)(F)F)N1CCC(CCCN2CCCC2)(c2ccncc2)CC1` (stereo not drawn) [Example 75, 1-[4-Pyridin-4-yl-4-(3-pyrrolidin-1-yl-propyl)-piperidin-1-yl]-2-[[4-[[2-(trifluoromethyl)-phenyl]sulfonyl]-3,4-dihydro-2H-[1,4]benzoxazin-3-yl]-methoxy]-ethanone], for which the inhibition at 10 µM amounted to 68%. In the case of `COc1cc(C)c(S(=O)(=O)N(CCOCC(=O)N2CCC(CCCN3CCCC3)(c3ccncc3)CC2)Cc2ccc3c(c2)OCOC3)c(C)c1` [Example 76, N-(4H-[1,3]Benzodioxin-7-yl-methyl)-4-methoxy-2,6-dimethyl-N-[2-[2-oxo-2-[4-pyridin-4-yl-4-(3-pyrrolidin-1-yl-propyl)-piperidin-1-yl]-ethoxy]-ethyl]-benzenesulfonic acid amide], the inhibition at 10 µM is 101%.
